Test results published in patent US11827624B2, “Covalent immune recruiter compounds for immune cell recognition and associated uses” (McMaster University, priority 2020, dated 2023).

Test system: human serum anti-DNP IgG (sAb)
Assay: BLI Fc capture probe assay of CIR 3 covalent recruitment of serum anti-DNP IgG
Type: binding
Settings: 60 nM anti-DNP IgG enriched sample
Experimental: The ability of CIR 3 to recruit the tumour antigen PSMA to anti-DNP antibodies was measured using BLI. Anti-DNP IgG was isolated from human serum IgG (Cedarlane Labs) using affinity chromatography. The enriched anti-DNP antibody sample had 63.19 nM of anti-DNP antibody in 1.92 μM of total IgG. The enriched antibody sample was reacted with 2.5 μM of CIR 3 in PBS overnight at room temperature. A sample of 32.75 μM IgG that was depleted of anti-DNP antibody was also reacted with 2.5 μM of CIR 3 in PBS overnight at room temperature as a negative control. The BLI experiment was conducted using an Octet Red96 (ForteBio) with the temperature set at 25° C., the RPM set at 1000, and the acquisition rate set at 5 Hz. The isolated anti-DNP and CIR 3 reaction samples were suspended in 1×Kinetics Buffer (ForteBio) by doping in a 1:10 dilution of 10×Kinetics Buffer stock. A volume of 200 μL of each solution was loaded into a black flat-bottom 96-well plate (Grenier). Fc capture (ProG) biosensors from ForteBio were placed in 1×Kinetics Buffer for 20 minutes prior to the experiment for wetting. First, the probes were placed in 1×Kinetics Buffer for 4 minutes to establish a baseline. […] Association of PSMA to the probe was measured by submerging the probe in 500 nM PSMA for 10 minutes. Dissociation of PSMA from the probe was measured by submerging the probe in 1×Kinetics Buffer for 10 minutes. […]

O=C(O)CC[C@H](NC(=O)N[C@@H](CCCCNC(=O)NCCOCCOCCOCCOCCOCCOCCOCCOC(=O)n1cnc(CCNC(=O)CNc2ccc([N+](=O)[O-])cc2[N+](=O)[O-])c1)C(=O)O)C(=O)O [CIR 3]
covalent labeling of enriched serum anti-DNP IgG: substantial covalent antibody labeling and resultant PSMA binding to Fc capture probes
